# Experimental data as given in patent publication US20180188266A1, “Characterization of Type 1 Collagen Synthesis By Fluorescence Imaging and Related Drug Screening Technique” (Florida State University Research Foundation, Inc., priority 2017, published 2018).
# Test system: Type 1 collagen synthesis
# Test: Confocal fluorescence imaging of Type 1 collagen synthesis in cells expressing COLa1(I)/mTagBFP2 + WT COLa2(I)/mEmerald
# Type: cell-based
# Details: fixed human lung fibroblasts expressing COLa1(I)/mTagBFP2+WT COLa2(I)/mEmerald; treated for 24 hours vs untreated cell
# Method: Three combinations of adenoviruses were used: • COLα1(I)/mTagBFP2 and WT COLα2(I)/mEmerald: images normal, regulated Type 1 collagen synthesis; • COLα1(I)/mTagBFP2 and MUT COLα2(I)/mEmerald: images collagen synthesis without regulation; and • COLα1(I)/mTagBFP2 and COLα2(I)/mEmeraldΔC: images absence of productive synthesis.
# Adenoviruses were mixed in a ratio determined by the viral titer and added to human lung fibroblasts in culture. After 48 hours the cells were either fixed in 3.7% formalin, mounted on glass slides and imaged or they were directly imaged as live cells.
# Confocal imaging of cells was performed either by Zeiss LSM 880 confocal microscope or Nikon Eclipse Ti laser spin disk confocal microscope in blue and green channels.
# The drug used in the confocal microscopy imaging experiments was compound 60D17 of U.S. Pat. No. 8,729,090, which is incorporated by reference. Compound 60D17 has the following formula.
structure (smiles),measurement,value
COC(=O)CNC(=O)c1cc2c(=O)n3cccc(C)c3nc2n1C [compound 60D17],"Effect on Type 1 collagen biosynthesis (confocal images, FIG. 4)",perturbed
